Columns and labels:
[1] = Competitive slurry experiments of polymorphic forms; type: physicochemical; conditions: competitive slurry of Form 1 with Form 2 and Form 3 in acetonitrile at room temperature (20-25° C.) and 75° C.
Description: Three anhydrous polymorphic forms of telmapitant or (5R,8S)-8-[[(1R)-1-[3,5-bis(trifluoromethyl)phenyl]ethoxy]methyl]-8-phenyl-1,3,7-triazaspiro[4.5]decane-2,4-dione (MK-7035) have been identified during polymorph screening.

[2] = test system: emesis induced by apomorphine IV and syrup of ipecac orally; conditions: dogs; centrally acting emetogens (apomorphine IV) and peripherally acting emetogens (syrup of ipecac orally); cited from earlier work

Compound | relative thermodynamic stability of polymorphic forms [1] | efficacy against emetogens [2]
C[C@@H](OC[C@@]1(c2ccccc2)CC[C@]2(CN1)NC(=O)NC2=O)c1cc(C(F)(F)F)cc(C(F)(F)F)c1 [Form 1, (5R,8S)-8-[[(1R)-1-[3,5-bis(trifluoromethyl)phenyl]ethoxy]methyl]-8-phenyl-1,3,7-triazaspiro[4.5]decane-2,4-dione] | thermodynamically more stable than Form 2 and Form 3 | 
COc1ccc(C(C)(C)C)cc1CN[C@H]1C2CCN(CC2)[C@H]1C(c1ccccc1)c1ccccc1 [maropitant] |  | effective

Reference: patent publication US20220227769A1, “CRYSTALLINE FORM OF TELMAPITANT OR (5R,8S)-8-[[(1R)-1-[3,5-BIS(TRIFLUOROMETHYL)PHENYL]ETHOXY]METHYL]-8-PHENYL-1,3,7-TRIAZASPIRO[4.5]DECANE-2,4-DIONE” (Intervet Inc., priority 2019, published 2022)
